Assay results from patent publication US20260232682A1, “GSPT1 DEGRADER COMPOUNDS” (Captor Therapeutics S.A., priority 2023, published 2026).

Experiments:
[1] = target: T1, [IKZF2 ZF2]-[compound]-[CRBN/DDB1] ternary complex (Homo sapiens, UniProt Q96SW2+Q9UKS7); experiment: AlphaLISA assay for off-target recruitment detection, IKZF2 ZF2; type: binding; settings: 1 μM compound; normalized to Helios modulator; read-out: Normalized ternary complex response, IKZF2 ZF2
T1 construct: IKZF2 ZF2
How it was run: (§1)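 Neo-substrate with 40 μg/ml donor beads and 200 nM 6×His-CRBN/DDB1 with 40 μg/ml anti-His acceptor beads were each prepared in PBS pH 7.4 with Tween-20 and 1 mM DTT, preincubated 30 min at RT, then mixed. Compounds at 2% DMSO were incubated 30 min at 25 °C, read at 680/615 nm, and normalised between DMSO background and reference glue maximum.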

[2] = target: [CK1α]-[compound]-[CRBN/DDB1] ternary complex (Homo sapiens, UniProt P48729+Q96SW2); experiment: AlphaLISA assay for off-target recruitment detection, CK1α; type: binding; settings: 1 μM compound; normalized to FPFT-2216; read-out: Normalized ternary complex response, CK1α
Sequence of [CK1α]-[compound]-[CRBN/DDB1] ternary complex (P48729 whole entry): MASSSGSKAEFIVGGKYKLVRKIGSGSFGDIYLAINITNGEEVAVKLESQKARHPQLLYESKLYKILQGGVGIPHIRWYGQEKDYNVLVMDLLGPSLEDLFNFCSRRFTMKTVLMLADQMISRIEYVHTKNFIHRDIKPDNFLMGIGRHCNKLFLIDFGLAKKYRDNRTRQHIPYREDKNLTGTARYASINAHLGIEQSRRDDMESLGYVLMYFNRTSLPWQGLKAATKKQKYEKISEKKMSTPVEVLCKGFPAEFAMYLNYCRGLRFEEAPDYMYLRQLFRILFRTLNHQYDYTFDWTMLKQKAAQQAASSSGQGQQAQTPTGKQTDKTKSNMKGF
Sequence of [CK1α]-[compound]-[CRBN/DDB1] ternary complex (Q96SW2 whole entry): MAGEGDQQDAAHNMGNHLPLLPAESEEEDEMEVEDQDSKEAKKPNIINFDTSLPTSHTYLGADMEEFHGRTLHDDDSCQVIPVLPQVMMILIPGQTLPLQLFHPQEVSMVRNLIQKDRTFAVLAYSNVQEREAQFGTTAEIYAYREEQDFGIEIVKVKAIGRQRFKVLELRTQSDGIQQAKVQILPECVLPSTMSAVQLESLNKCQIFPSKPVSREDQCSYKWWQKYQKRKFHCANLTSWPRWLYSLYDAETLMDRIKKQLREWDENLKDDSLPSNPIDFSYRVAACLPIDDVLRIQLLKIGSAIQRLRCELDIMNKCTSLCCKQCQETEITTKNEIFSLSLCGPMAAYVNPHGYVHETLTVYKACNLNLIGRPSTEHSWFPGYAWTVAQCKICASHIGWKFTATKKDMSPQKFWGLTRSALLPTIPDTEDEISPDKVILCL
Sequence of [CK1α]-[compound]-[CRBN/DDB1] ternary complex (Q16531 whole entry partner): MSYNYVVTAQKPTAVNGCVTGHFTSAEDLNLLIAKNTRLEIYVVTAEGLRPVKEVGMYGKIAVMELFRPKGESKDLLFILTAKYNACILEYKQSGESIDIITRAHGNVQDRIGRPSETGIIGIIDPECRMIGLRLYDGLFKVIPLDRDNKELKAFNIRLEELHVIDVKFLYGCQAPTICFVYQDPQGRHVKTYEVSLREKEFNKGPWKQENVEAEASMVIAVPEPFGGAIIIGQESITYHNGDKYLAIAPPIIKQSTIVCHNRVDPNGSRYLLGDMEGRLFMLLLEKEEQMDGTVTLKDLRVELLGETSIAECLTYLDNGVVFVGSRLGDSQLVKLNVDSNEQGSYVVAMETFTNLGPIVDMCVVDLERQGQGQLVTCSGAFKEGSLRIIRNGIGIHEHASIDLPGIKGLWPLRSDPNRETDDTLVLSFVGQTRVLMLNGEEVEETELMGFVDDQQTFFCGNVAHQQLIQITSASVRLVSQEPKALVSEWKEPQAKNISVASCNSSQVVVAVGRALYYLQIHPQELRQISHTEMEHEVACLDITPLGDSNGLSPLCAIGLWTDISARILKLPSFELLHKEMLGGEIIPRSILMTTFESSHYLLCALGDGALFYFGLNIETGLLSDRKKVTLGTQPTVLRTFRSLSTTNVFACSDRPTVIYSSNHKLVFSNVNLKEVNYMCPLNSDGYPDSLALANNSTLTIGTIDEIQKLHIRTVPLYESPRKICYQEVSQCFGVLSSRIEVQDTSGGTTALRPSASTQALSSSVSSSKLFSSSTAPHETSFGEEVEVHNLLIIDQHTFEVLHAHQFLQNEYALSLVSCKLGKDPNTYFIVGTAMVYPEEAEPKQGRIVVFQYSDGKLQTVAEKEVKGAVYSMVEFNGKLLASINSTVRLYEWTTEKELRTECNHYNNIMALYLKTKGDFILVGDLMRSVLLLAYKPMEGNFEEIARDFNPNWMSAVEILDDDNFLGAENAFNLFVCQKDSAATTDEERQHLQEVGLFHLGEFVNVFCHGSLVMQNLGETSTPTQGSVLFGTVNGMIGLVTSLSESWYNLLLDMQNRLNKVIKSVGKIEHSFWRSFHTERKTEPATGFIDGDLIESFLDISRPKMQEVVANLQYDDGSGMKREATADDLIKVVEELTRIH
How it was run: as §1

[3] = target: T2, [GSPT1]-[compound of formula (I)]-[CRBN/DDB1] complex (Homo sapiens, UniProt P15170+Q96SW2); experiment: AlphaLISA ternary complex formation assay (GSPT1); type: binding; settings: 0.5 h; 1 μM compound; normalized to reference compound CC-885; read-out: Normalized AlphaLISA ternary complex average signal at 1 μM molecule
T2 sequence (P15170 whole entry): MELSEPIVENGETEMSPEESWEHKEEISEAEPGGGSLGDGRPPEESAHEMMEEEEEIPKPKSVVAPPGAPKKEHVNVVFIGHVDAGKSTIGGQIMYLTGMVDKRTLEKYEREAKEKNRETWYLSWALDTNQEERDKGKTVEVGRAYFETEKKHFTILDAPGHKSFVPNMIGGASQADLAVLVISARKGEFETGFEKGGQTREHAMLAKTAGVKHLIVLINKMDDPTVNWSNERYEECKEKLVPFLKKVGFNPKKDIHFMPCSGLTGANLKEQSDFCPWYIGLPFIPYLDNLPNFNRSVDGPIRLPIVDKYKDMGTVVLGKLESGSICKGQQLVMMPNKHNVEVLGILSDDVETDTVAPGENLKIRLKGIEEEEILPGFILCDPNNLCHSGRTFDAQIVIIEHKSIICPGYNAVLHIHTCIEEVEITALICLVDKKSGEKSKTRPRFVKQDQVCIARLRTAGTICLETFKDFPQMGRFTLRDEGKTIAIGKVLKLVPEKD
T2 sequence (Q96SW2 whole entry): as the sequence (Q96SW2 whole entry) above
T2 sequence (Q16531 whole entry partner): as the sequence (Q16531 whole entry partner) above
How it was run: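 Biotinylated GSPT1 on streptavidin donor beads and 6×His-CRBN/DDB1 on anti-His acceptor beads (each 200 nM before mixing) in HBS pH 7.4 with 0.1% Tween-20 and 1 mM DTT, 2% DMSO final, 30 min at 25 °C. AlphaLISA luminescence is normalized between DMSO background and the reference compound's maximum.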

[4] = target: T2, [GSPT1]-[compound of formula (I)]-[CRBN/DDB1] complex; experiment: HTRF ternary complex assay (GSPT1); type: binding; settings: read-out: HTRF ternary complex Average pEC50 by molecule (converted)
How it was run: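 Compounds in dose-response were incubated 180 min at 25 °C with 48 nM GSPT1 and 52.8 nM 6×His-CRBN/DDB1, plus Streptavidin-Eu cryptate and anti-6×His-d2, in buffer with 1 mM DTT and 0.5% DMSO. TR-FRET (665/620) was normalized to DMSO background and fitted with a Hill slope model for EC50/pEC50.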

[5] = target: T3, [IKZF1 ZF2]-[compound]-[CRBN/DDB1] ternary complex (Homo sapiens, UniProt Q13422+Q96SW2); experiment: AlphaLISA assay for off-target recruitment detection, IKZF1 ZF2; type: binding; settings: 1 μM compound; normalized to Lenalidomide; read-out: Normalized ternary complex response, IKZF1 ZF2
T3 construct: IKZF1 ZF2
T3 sequence (Q13422 145-167 limits assumed): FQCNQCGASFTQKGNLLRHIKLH
T3 sequence (Q96SW2 whole entry): as the sequence (Q96SW2 whole entry) above
T3 sequence (Q16531 whole entry partner): as the sequence (Q16531 whole entry partner) above
How it was run: as §1

GSPT1-HiBiT HEK293 cells = experiment: Cell Viability-CTG assay accompanying the Nano-Glo HiBiT assay; type: cell-based; settings: 6 hours treatment, viability of GSPT1-HiBiT HEK293 cells
Description: In parallel, the Cell Viability-CTG assay was performed to ensure that the potential decrease of the luminescent signal observed in the Nano-Glo HiBiT assay is a result of protein degradation and not a result of decreasing cell viability. For CTG assay accompanying the Nano-Glo HiBiT assay, cells were cultured, seeded and treated as described above. After 6 hours of incubation (37° C., 5% CO2), plates were removed from the incubator and let to equilibrate to RT. Luminescent signal detection was conducted using the CellTiter-Glo Lumiescent Cell Viability Assay (Promega, cat. nr G7573). 10 μL of the Cell Titer Glo reagent was added per well, plates were shaken to facilitate lysis (460 rpm, 4 min, RT) and incubated in the dark for the following 8 min. Luminescence was read using the CLARIOstar multimode plate reader (BMG LABTECH). The raw data (the relative luminescence unit values, RLU) were uploaded under the relevant protocol and analysed in CDDVault data management platform, in a manner similar to the description above. The Mean Minimum values were calculated in CDDVault using non-linear regression and appropriate equations.

T1 sequence (Q9UKS7 140-162 limits assumed): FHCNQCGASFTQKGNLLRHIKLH
T1 sequence (Q96SW2 whole entry): as the sequence (Q96SW2 whole entry) above
T1 sequence (Q16531 whole entry partner): as the sequence (Q16531 whole entry partner) above

| activation at 1 µM [1] | activation at 1 µM [2] | activation at 1 µM [3] | EC50 [4] | activation at 1 µM [5] | Structure (SMILES) | CTG assay Mean minimum (GSPT1-HiBiT HEK293 cells) |
| --- | --- | --- | --- | --- | --- | --- |
| < 10% | < 10% | 10 to 50% | < 316 nM | < 10% | Cc1nc2cc(COC(=O)Nc3cc(Cl)c(C)c(CN4CCOCC4)c3)ccc2cc1C1CCC(=O)NC1=O (stereo not drawn) [Compound 17, (3-(2,6-dioxopiperidin-3-yl)-2-methylquinolin-7-yl)methyl (3-chloro-4-methyl-5-(morpholinomethyl)phenyl)carbamate] | ++++ (++++≥75% of viability of the HiBiT-GSPT1 HEK293 cells) |
| < 10% | < 10% | 10 to 50% | 316 to 3160 nM | < 10% | Cc1nc2cc(COC(=O)Nc3ccc(C(F)(F)F)c(Cl)c3)ccc2cc1C1CCC(=O)NC1=O (stereo not drawn) [Compound 18, (3-(2,6-dioxopiperidin-3-yl)-2-methylquinolin-7-yl)methyl (3-chloro-4-(trifluoromethyl)phenyl)carbamate] | ++++ (++++≥75% of viability of the HiBiT-GSPT1 HEK293 cells) |
| < 10% | < 10% | 10 to 50% | > 3160 nM | < 10% | Cc1nc2cc(COC(=O)Nc3cccc(OC(F)(F)F)c3)ccc2cc1C1CCC(=O)NC1=O (stereo not drawn) [Compound 19, (3-(2,6-dioxopiperidin-3-yl)-2-methylquinolin-7-yl)methyl (3-(trifluoromethoxy)phenyl)carbamate] | ++++ (++++≥75% of viability of the HiBiT-GSPT1 HEK293 cells) |
| < 10% | < 10% | 10 to 50% | < 316 nM | < 10% | Cc1nc2cc(COC(=O)Nc3ccc(-c4ccccc4)nc3)ccc2cc1C1CCC(=O)NC1=O (stereo not drawn) [Compound 20, (3-(2,6-dioxopiperidin-3-yl)-2-methylquinolin-7-yl)methyl (6-phenylpyridin-3-yl)carbamate] | ++++ (++++≥75% of viability of the HiBiT-GSPT1 HEK293 cells) |
| < 10% | < 10% | > 50% | 316 to 3160 nM | < 10% | COc1cc(C)c(Cl)cc1NC(=O)OCc1ccc2cc(C3CCC(=O)NC3=O)c(C)nc2c1 (stereo not drawn) [Compound 21, (3-(2,6-dioxopiperidin-3-yl)-2-methylquinolin-7-yl)methyl (5-chloro-2-methoxy-4-methylphenyl)carbamate] | ++++ (++++≥75% of viability of the HiBiT-GSPT1 HEK293 cells) |
| < 10% | < 10% | > 50% | 316 to 3160 nM | < 10% | Cc1ccc(NC(=O)OCc2cc(F)c3cc(C4CCC(=O)NC4=O)c(C)nc3c2)cc1Cl (stereo not drawn) [Compound 22, (3-(2,6-dioxopiperidin-3-yl)-5-fluoro-2-methylquinolin-7-yl)methyl (3-chloro-4-methylphenyl)carbamate] | ++++ (++++≥75% of viability of the HiBiT-GSPT1 HEK293 cells) |
| < 10% | < 10% | 10 to 50% | < 316 nM | < 10% | Cc1ccc(NC(=O)NCc2ccc3cc(N4CCC(=O)NC4=O)c(C)nc3c2)cc1Cl [Compound 27, 1-(3-chloro-4-methylphenyl)-3-((3-(2,4-dioxotetrahydropyrimidin-1(2H)-yl)-2-methylquinolin-7-yl)methyl)urea] | ++++ (++++≥75% of viability of the HiBiT-GSPT1 HEK293 cells) |
| < 10% | < 10% | 10 to 50% | 316 to 3160 nM | < 10% | Cc1ccc(NC(=O)OCc2ccc3cc(N4CCC(=O)NC4=O)c(C)nc3c2)cc1Cl [Compound 28, (3-(2,4-dioxotetrahydropyrimidin-1(2H)-yl)-2-methylquinolin-7-yl)methyl (3-chloro-4-methylphenyl)carbamate] | ++++ (++++≥75% of viability of the HiBiT-GSPT1 HEK293 cells) |
| < 10% | < 10% | 10 to 50% | > 3160 nM | 10 to 25% | Cc1ccc(NC(=O)OCc2ccc3nc(C)c(N4CCC(=O)NC4=O)cc3c2)cc1Cl [Compound 29, (3-(2,4-dioxotetrahydropyrimidin-1(2H)-yl)-2-methylquinolin-6-yl)methyl (3-chloro-4-methylphenyl)carbamate] | ++++ (++++≥75% of viability of the HiBiT-GSPT1 HEK293 cells) |
| < 10% | < 10% | > 50% | 316 to 3160 nM | < 10% | Cc1nc2cc(COC(=O)Nc3cc(C(C)(C)C)no3)ccc2cc1C1CCC(=O)NC1=O (stereo not drawn) [Compound 30, (3-(2,6-dioxopiperidin-3-yl)-2-methylquinolin-7-yl)methyl (3-(tert-butyl)isoxazol-5-yl)carbamate] | ++++ (++++≥75% of viability of the HiBiT-GSPT1 HEK293 cells) |
| < 10% | < 10% | > 50% | 316 to 3160 nM | < 10% | Cc1ccc(NC(=O)CCc2ccc3cc(C4CCC(=O)NC4=O)c(C)nc3c2)cc1Cl (stereo not drawn) [Compound 32, N-(3-chloro-4-methylphenyl)-3-(3-(2,6-dioxopiperidin-3-yl)-2-methylquinolin-7-yl)propanamide] | ++++ (++++≥75% of viability of the HiBiT-GSPT1 HEK293 cells) |
| < 10% | < 10% | 10 to 50% | 316 to 3160 nM | < 10% | Cc1nc2cc(COC(=O)Nc3csc(-c4ccccc4)c3)ccc2cc1C1CCC(=O)NC1=O (stereo not drawn) [Compound 37, (3-(2,6-dioxopiperidin-3-yl)-2-methylquinolin-7-yl)methyl (5-phenylthiophen-3-yl)carbamate] | ++++ (++++≥75% of viability of the HiBiT-GSPT1 HEK293 cells) |
| < 10% | < 10% | < 10% | 316 to 3160 nM | < 10% | Cc1ccc(NC(=O)OCc2ccc3cc([C@@H]4CCC(=O)NC4=O)c(C)nc3c2)cc1Cl [Compound 38, (3-(2,6-dioxopiperidin-3-yl)-2-methylquinolin-7-yl)methyl (3-chloro-4-methylphenyl)carbamate] | ++++ (++++≥75% of viability of the HiBiT-GSPT1 HEK293 cells) |
| < 10% | < 10% | > 50% | 316 to 3160 nM | < 10% | Cc1ccc(NC(=O)OCc2ccc3cc([C@H]4CCC(=O)NC4=O)c(C)nc3c2)cc1Cl [Compound 39, (3-(2,6-dioxopiperidin-3-yl)-2-methylquinolin-7-yl)methyl (3-chloro-4-methylphenyl)carbamate] | ++++ (++++≥75% of viability of the HiBiT-GSPT1 HEK293 cells) |
| < 10% | < 10% | > 50% | 316 to 3160 nM | < 10% | Cc1nc2cc(COC(=O)Nc3ccc(N4CCOCC4)nc3)ccc2cc1C1CCC(=O)NC1=O (stereo not drawn) [Compound 42, (3-(2,6-dioxopiperidin-3-yl)-2-methylquinolin-7-yl)methyl (6-morpholinopyridin-3-yl)carbamate] | ++++ (++++≥75% of viability of the HiBiT-GSPT1 HEK293 cells) |
